This assay concerns the target Human FXR (NR1H4) (Homo sapiens (Human), UniProt Q96RI1). Nature of the assay: Human FXR (NR1H4) Assay (Gal4 promoter driven luciferase reporter transactivation in CHO cells). It counts as cell-based. The text has this:
Assays Human FXR (NR1H4) Assay
Determination of a ligand mediated Gal4 promoter driven transactivation to quantify ligand binding mediated activation of FXR. FXR Reporter Assay kit purchased from Indigo Bioscience (Catalogue number: IB00601) to determine the potency and efficacy of compound developed by Enanta that can induce FXR activation. The principle application of this reporter assay system is to quantify functional activity of human FXR. The assay utilizes non-human mammalian cells, CHO (Chinese hamster ovary) cells engineered to express human NR1H4 protein (referred to as FXR). Reporter cells also incorporate the cDNA encoding beetle luciferase which catalyzes the substrates and yields photon emission. Luminescence intensity of the reaction is quantified using a plate-reading luminometer, Envision. Reporter Cells include the luciferase reporter gene functionally linked to an FXR responsive promoter. Thus, quantifying changes in luciferase expression in the treated reporter cells provides a sensitive surrogate measure of the changes in FXR activity. […] The assay is according to the manufacturer's instructions. In brief, the assay was performed in white, 96 well plates using final volume of 200 ul containing cells with different doses of compounds. Retrieve Reporter Cells from −80° C. storage. Perform a rapid thaw of the frozen cells by transferring a 10 ml volume of 37° C. cell recovery medium into the tube of frozen cells. Recap the tube of Reporter Cells and immediately place it in a 37° C. water bath for 5-10 minutes. Retrieve the tube of Reporter Cell Suspension from the water bath. Sanitize the outside surface of the tube with a 70% alcohol swab, and then transfer it into the cell culture hood. Dispense 100 μl of cell suspension into each well of the 96-well Assay Plate. Transfer the plate into 37° C. incubator, allowing the cells adherent to the bottom of the well. Dilute compounds in Dilution Plate (DP), and administrate to cells at Assay Plate (AP). DMSO content of the samples was kept at 0.2%. Cells were incubated for additional 22 hours before luciferase activities were measured. Thirty minutes before intending to quantify FXR activity, remove Detection Substrate and Detection Buffer from the refrigerator and place them in a low-light area so that they may equilibrate to room temperature. Remove the plate's lid and discard all media contents by ejecting it into an appropriate waste container. Gently tap the inverted plate onto a clean absorbent paper towel to remove residual droplets. Cells will remain tightly adhered to well bottoms. Add 100 μl of luciferase detection reagent to each well of the assay plate. Allow the assay plate to rest at room temperature for at least 5 minutes following the addition of LDR. Set the instrument (Envision) to perform a single 5 second “plate shake” prior to reading the first assay well. Read time may be 0.5 second (500 mSec) per well.
(A reporter such as luciferase makes a cellular process visible.)

The mark [1] stands for this setting: FXR agonistic potency range; CHO reporter cells expressing human NR1H4, 22 hours incubation; read-out: EC50.

Where two headings read alike, the source gives them in different places. Some results are limits rather than exact numbers.

Sequence of Human FXR (NR1H4) (Q96RI1 whole entry, the tested form may be a part): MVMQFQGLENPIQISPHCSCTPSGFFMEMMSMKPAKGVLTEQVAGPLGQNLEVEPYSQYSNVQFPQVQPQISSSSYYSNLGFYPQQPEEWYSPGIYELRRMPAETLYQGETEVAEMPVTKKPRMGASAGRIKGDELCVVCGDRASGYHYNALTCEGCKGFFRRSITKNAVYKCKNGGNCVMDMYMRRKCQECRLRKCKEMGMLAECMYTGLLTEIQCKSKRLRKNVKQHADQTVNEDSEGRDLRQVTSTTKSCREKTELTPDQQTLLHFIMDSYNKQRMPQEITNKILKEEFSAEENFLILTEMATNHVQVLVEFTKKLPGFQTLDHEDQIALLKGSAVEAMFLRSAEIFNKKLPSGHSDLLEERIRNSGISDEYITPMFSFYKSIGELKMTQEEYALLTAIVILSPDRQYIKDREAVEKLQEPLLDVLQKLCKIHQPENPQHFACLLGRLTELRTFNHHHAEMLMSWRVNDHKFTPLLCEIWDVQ

As usually defined, the EC50 is the midpoint of the concentration-response curve. For `CC[C@@H]1C2C[C@H](O)CCC2(C)[C@H]2CCC3(C)C([C@H](C)CCC(=O)NS(=O)(=O)C4CCCCC4)CC[C@H]3[C@@H]2[C@@H]1O` (some centres unmarked) [Example 468], the Emax (CHO, read-out: Efficacy (%)) came to 480%. Besides, the concentration for a half-maximal effect (EC50) under setting [1] was below 0.1 µM.

Turning to `CC[C@@H]1C2C[C@H](O)CCC2(C)[C@H]2CCC3(C)C([C@H](C)CCC(=O)NS(=O)(=O)c4cnccn4)CC[C@H]3[C@@H]2[C@@H]1O` (some centres unmarked) [Example 469], the Emax (CHO; read-out: Efficacy (%)) turned out to be 447%. Under “read-out: EC50”, the EC50 was in the range of 1 to 10 µM.

For `CC[C@@H]1C2C[C@H](O)CCC2(C)[C@H]2CCC3(C)C([C@H](C)CCC(=O)NS(=O)(=O)c4cccc5ncccc45)CC[C@H]3[C@@H]2[C@@H]1O` (some centres unmarked) [Example 470], the Emax (CHO; read-out: Efficacy (%)) worked out at 439%. Moreover, the concentration for a half-maximal effect (EC50) (read-out: EC50) was in the range of 0.1 to 1 µM.

Turning to `CC[C@@H]1C2C[C@H](O)CCC2(C)[C@H]2CCC3(C)C([C@H](C)CCC(=O)NS(=O)(=O)c4cccc(OC(F)(F)F)c4)CC[C@H]3[C@@H]2[C@@H]1O` (some centres unmarked) [Example 471], where the note is “CHO, read-out: Efficacy (%)”, the Emax was 467%. Under setting [1], the concentration for a half-maximal effect (EC50) was below 0.1 µM.

Regarding `CC[C@@H]1C2C[C@H](O)CCC2(C)[C@H]2CCC3(C)C([C@H](C)CCC(=O)NS(=O)(=O)c4ccc5ccccc5c4)CC[C@H]3[C@@H]2[C@@H]1O` (some centres unmarked) [Example 472], for the setting “CHO, read-out: Efficacy (%)”, the Emax amounted to 580%. Also, under setting [1], the EC50 is below 0.1 µM.

As for `CC[C@@H]1C2C[C@H](O)CCC2(C)[C@H]2CCC3(C)C([C@H](C)CCC(=O)NS(=O)(=O)c4ccc(OC(F)(F)F)cc4)CC[C@H]3[C@@H]2[C@@H]1O` (some centres unmarked) [Example 473], the Emax (CHO, read-out: Efficacy (%)) turned out to be 606%. Moreover, the EC50 under setting [1] was below 0.1 µM.

Turning to `CC[C@@H]1C2C[C@H](O)CCC2(C)[C@H]2CCC3(C)C([C@H](C)CCC(=O)NS(=O)(=O)c4nccs4)CC[C@H]3[C@@H]2[C@@H]1O` (some centres unmarked) [Example 474], the Emax (CHO; read-out: Efficacy (%)) stood at 463%. Where the note is “read-out: EC50”, the EC50 fell in the range of 1 to 10 µM.

For `CC[C@@H]1C2C[C@H](O)CCC2(C)[C@H]2CCC3(C)C([C@H](C)CCC(=O)NS(=O)(=O)c4ccc(C(F)(F)F)cc4)CC[C@H]3[C@@H]2[C@@H]1O` (some centres unmarked) [Example 475], where the note is “CHO, read-out: Efficacy (%)”, the Emax is 590%. Also, the EC50 under setting [1] is below 0.1 µM.

For `CC[C@@H]1C2C[C@H](O)CCC2(C)[C@H]2CCC3(C)C([C@H](C)CCC(=O)NS(=O)(=O)c4ccc(OC)c(F)c4)CC[C@H]3[C@@H]2[C@@H]1O` (some centres unmarked) [Example 476], for the setting “CHO, read-out: Efficacy (%)”, the Emax is 593%. In addition, under setting [1], the concentration for a half-maximal effect (EC50) was below 0.1 µM.

Take `CC[C@@H]1C2C[C@H](O)CCC2(C)[C@H]2CCC3(C)C([C@H](C)CCC(=O)NS(=O)(=O)c4cccc(OC)c4)CC[C@H]3[C@@H]2[C@@H]1O` (some centres unmarked) [Example 477]: the Emax (CHO, read-out: Efficacy (%)) was found to be 596%. Besides, the EC50 under setting [1] was below 0.1 µM.

For the compound `CC[C@@H]1C2C[C@H](O)CCC2(C)[C@H]2CCC3(C)C([C@H](C)CCC(=O)NS(=O)(=O)c4ccc(OC)c(OC)c4)CC[C@H]3[C@@H]2[C@@H]1O` (some centres unmarked) [Example 478], the Emax (CHO; read-out: Efficacy (%)) turned out to be 589%. The EC50 (read-out: EC50) fell in the range of 0.1 to 1 µM.

`CC[C@@H]1C2C[C@H](O)CCC2(C)[C@H]2CCC3(C)C([C@H](C)CCC(=O)NS(=O)(=O)c4cccc(Cl)c4)CC[C@H]3[C@@H]2[C@@H]1O` (some centres unmarked) [Example 479]: under “CHO, read-out: Efficacy (%)”, the Emax is 572%. Moreover, under setting [1], the half-maximal effective concentration (EC50) is below 0.1 µM.

Turning to `CC[C@@H]1C2C[C@H](O)CCC2(C)[C@H]2CCC3(C)C([C@H](C)CCC(=O)NS(=O)(=O)c4ccc(Cl)cc4)CC[C@H]3[C@@H]2[C@@H]1O` (some centres unmarked) [Example 480], the Emax (CHO, read-out: Efficacy (%)) was 346%. The EC50 under setting [1] is below 0.1 µM.

For `CC[C@@H]1C2C[C@H](O)CCC2(C)[C@H]2CCC3(C)C([C@H](C)CCC(=O)NS(=O)(=O)c4ccc5c(c4)OCO5)CC[C@H]3[C@@H]2[C@@H]1O` (some centres unmarked) [Example 481], the Emax (CHO, read-out: Efficacy (%)) is 359%. In addition, the EC50 under setting [1] is below 0.1 µM.

Regarding `CC[C@@H]1C2C[C@H](O)CCC2(C)[C@H]2CCC3(C)C([C@H](C)CCC(=O)NS(=O)(=O)C4CCCC4)CC[C@H]3[C@@H]2[C@@H]1O` (some centres unmarked) [Example 482], where the note is “CHO, read-out: Efficacy (%)”, the Emax came to 342%. Also, under setting [1], the EC50 is below 0.1 µM.

`CC[C@@H]1C2C[C@H](O)CCC2(C)[C@H]2CCC3(C)C([C@H](C)CCC(=O)NS(=O)(=O)c4cccc5ccccc45)CC[C@H]3[C@@H]2[C@@H]1O` (some centres unmarked) [Example 483]: the Emax (CHO, read-out: Efficacy (%)) was 308%. Under setting [1], the EC50 was below 0.1 µM.

For `CC[C@@H]1C2C[C@H](O)CCC2(C)[C@H]2CCC3(C)C([C@H](C)CCC(=O)NS(=O)(=O)c4ccc(C(C)(C)C)cc4)CC[C@H]3[C@@H]2[C@@H]1O` (some centres unmarked) [Example 484], where the note is “CHO, read-out: Efficacy (%)”, the Emax came to 349%. Also, the EC50 under setting [1] was below 0.1 µM.

Turning to `CC[C@H]1[C@@H](O)[C@@H]2[C@H](CC[C@]3(C)[C@@H]([C@H](C)C[C@@H](C)C(=O)NS(=O)(=O)c4ccc(C(C)(C)C)cc4)CC[C@@H]23)[C@@]2(C)CC[C@@H](O)C[C@@H]12` [Example 485], for the setting “CHO; read-out: Efficacy (%)”, the Emax came to 185%. For the same compound, the EC50 (read-out: EC50) is 0.1 to 1 µM.

With `CC[C@H]1[C@@H](O)[C@@H]2[C@H](CC[C@]3(C)[C@@H]([C@H](C)C[C@@H](C)C(=O)NS(=O)(=O)C4CC4)CC[C@@H]23)[C@@]2(C)CC[C@@H](O)C[C@@H]12` [Example 486], where the note is “CHO; read-out: Efficacy (%)”, the Emax was 387%. Further, the EC50 (read-out: EC50) is 0.1 to 1 µM.

On to `CC[C@H]1[C@@H](O)[C@@H]2[C@H](CC[C@]3(C)[C@@H]([C@H](C)C[C@@H](C)C(=O)NS(=O)(=O)c4ccc(OC(F)(F)F)cc4)CC[C@@H]23)[C@@]2(C)CC[C@@H](O)C[C@@H]12` [Example 487], for which, for the setting “CHO, read-out: Efficacy (%)”, the Emax worked out at 287%. For the same compound, the EC50 under setting [1] is below 0.1 µM.

`CC[C@H]1[C@@H](O)[C@@H]2[C@H](CC[C@]3(C)[C@@H]([C@H](C)C[C@H](C)C(=O)NS(=O)(=O)c4ccc(C(C)(C)C)cc4)CC[C@@H]23)[C@@]2(C)CC[C@@H](O)C[C@@H]12` [Example 488]: the Emax (CHO; read-out: Efficacy (%)) stood at 132%. For the same compound, under “read-out: EC50”, the EC50 lay within 0.1 to 1 µM.

With `CC[C@H]1[C@@H](O)[C@@H]2[C@H](CC[C@]3(C)[C@@H]([C@H](C)CCC(=O)N(C)S(=O)(=O)c4ccccc4)CC[C@@H]23)[C@@]2(C)CC[C@@H](O)C[C@@H]12` [Example 489], where the note is “CHO; read-out: Efficacy (%)”, the Emax was 231%. The concentration for a half-maximal effect (EC50) (read-out: EC50) is 1 to 10 µM.

Take `CC[C@H]1[C@@H](O)[C@@H]2[C@H](CC[C@]3(C)[C@@H]([C@H](C)CCCC(=O)NS(=O)(=O)C4CC4)CC[C@@H]23)[C@@]2(C)CC[C@@H](O)C[C@@H]12` [Example 490]: under “CHO; read-out: Efficacy (%)”, the Emax worked out at 223%. For the same compound, the concentration for a half-maximal effect (EC50) (read-out: EC50) was in the range of 0.1 to 1 µM.

As to `CC[C@H]1[C@@H](O)[C@@H]2[C@H](CC[C@]3(C)[C@@H]([C@H](C)CCCC(=O)NS(=O)(=O)c4ccc(C(C)(C)C)cc4)CC[C@@H]23)[C@@]2(C)CC[C@@H](O)C[C@@H]12` [Example 491], under “CHO, read-out: Efficacy (%)”, the Emax amounted to 182%. For the same compound, the concentration for a half-maximal effect (EC50) under setting [1] was below 0.1 µM.

As for `CC[C@H]1[C@@H](O)[C@@H]2[C@H](CC[C@]3(C)[C@@H]([C@H](C)CCCC(=O)NS(=O)(=O)C4(C)CC4)CC[C@@H]23)[C@@]2(C)CC[C@@H](O)C[C@@H]12` [Example 492], for the setting “CHO; read-out: Efficacy (%)”, the Emax was determined as 226%. For the same compound, the EC50 (read-out: EC50) was in the range of 0.1 to 1 µM.

Source of the values: US10266560B2, “Bile acid analogs as FXR/TGR5 agonists and methods of use thereof” (Enanta Pharmaceuticals, Inc., priority 2014, dated 2019).
